Tests used:
[1] = system: HLH-30; assay: HLH-30 expression and activity in C. elegans (GFP reporter, immunoblot, qRT-PCR); assay type: in vivo; settings: for HLH-30:GFP protein by immunoblot: MAH235 young adult worms
Description: FIG. 9A-9B illustrates that coumarin 106 (“C1”. “AIC106”) induces TFEB (HLH-30) signaling in C. elegans. FIG. 9A) Nuclear TFEB homologue HLH-30 levels in HLH-30 GFP tagged worms grown from day 1 at 20° C. as a measure of TFEB activation. Values are reported as average GFP intensity visualized at a young adult stage, day-5; **p<0.0002 versus control. FIG. 9B) TFEB mRNA levels by qPCR following 24 hrs of C1 treatment (10 μM 20 μM) in worms+/−HLH30 RNAi. Values represent RNA levels versus DMSO-only control RNAi; *p<0.001 versus control RNAi.
FIG. 18, panels A-F: AIC106 (Autophagy Inducing Coumarin-106) induces transcription of TFEB and its targets in vitro in rat N27 neuronal cells and in vivo in C. elegans. Panel A) Relative fold change in TFEB promoter activity compared to DMSO-control was determined by quantifying luciferase activity in supernatants collected from rat N27 neuronal cells post-24 hour treatment with C1 (AIC106), D1 and D2. [n=3 independent experiments (mean±SEM), **p<0.01, by one-way ANOVA with Dunnett's multiple comparisons test]. Panel B) Chemical structure of AIC106 and its structural derivative D1 and D2. Panel C) Relative fold change in mRNA of tfeb and its targets compared to DMSO-control were quantified using qRT-PCR in N27 neuronal cells post-24 hour treatment with AIC106 [N=3 independent experiments (mean±SD). *p<0.05, **p<0.01 and ****p<0.0001, by two-way ANOVA with Sidak's multiple comparisons test]. Panel D) Changes in HLH-30 expression were measured by quantifying GFP intensity in an individual GFP-tagged HLH-30 strain (MAH235) post-24 hours treatment with AIC106 and DMSO-control. [N=3 independent experiments (mean±SD). ****p<0.0001, by unpaired t-test]. Panel E) HLH-30; GFP (MAH235) were monitored by fluorescence microscopy. Panel F) Relative fold change in mRNA of hlh-30 and its targets compared to DMSO-control were quantified using qRT-PCR in young adult wild type N2 worms post-24 hours treatment with AIC106. [N=3 independent experiments (mean±SD). *p<0.05, **p<0.01 and ***p<0.001, by two-way ANOVA with Sidak's multiple comparisons test].
FIG. 22, panels A-H: AIC106-induced HLH-30 expression is mediated by the nuclear hormone receptor DAF-12. Panel A) The upstream promoter region (2 kB) of hlh-30 was analyzed by JASPAR CORE database to determine DAF-12 binding sites (1: SEQ ID NO:1, 2: 1: SEQ ID NO:2, 3: SEQ ID NO:3, 4: SEQ ID NO:4, 5: SEQ ID NO:5, 6: SEQ ID NO:6, 7: SEQ ID NO:7, 8: SEQ ID NO:8, 9: SEQ ID NO:9, 10: SEQ ID NO:10, 11: SEQ ID NO:11, 12: SEQ ID NO:12). Panel B) Relative fold change in mRNA of hlh-30 compared to DMSO-control was quantified using qRT-PCR in young adult wild-type N2 and daf-12(rh61rh411) worms post-24 hours treatment with AIC106. [N=3 independent experiments (mean±SD). **p<0.01, by one-way ANOVA with Sidak's multiple comparisons test]. Panel C) Effects of AIC106 on DAF-12 activity was determined in a mammalian one-hybrid assay by quantifying changes in the luciferase activity of DAF-12 ligand (dafachronic acid, DA) induced treatment. [N=3 independent experiments (mean±SD). *p<0.05 **p<0.01 and ***p<0.001, by one-way ANOVA with Tukey's multiple comparisons test]. Panel D) Schematic diagram showing that addition of AIC106 or inhibition of DAF-12 ligand synthesis, which leads to un-liganded DAF-12 may result in enhanced HLH-30 expression. Panel E) Dafadine-A (DFA), a specific inhibitor of key enzyme required for synthesis of DAF-12 ligand induces HLH-30 expression. Immunoblot for GFP was performed on protein lysate of HLH-30; GFP (MAH235) young adult worms treated with DFA or DMSO-control for 24 hours. Panel F) Protection against mitochondrial toxin (FCCP) was determined by quantifying survival of young adult worms treated 24 hours with DFA or DMSO-control. [N=3 independent experiments (mean±SD). **p<0.01, by two-way ANOVA with Tukey's multiple comparisons test]. […]

[2] = system: C. elegans; assay: FCCP mitochondrial toxin stress assay in C. elegans; assay type: in vivo; settings: for resistance to mitochondrial toxin FCCP (survival): wild type worms, 24 hours treatment
Description: FIG. 20, panels A-H: AIC106 treatment improves mitochondrial health. Panel A) Changes in mitochondrial membrane potential were determined by quantifying fluorescence intensity of individual TMRM stained wild type N2 worms post-24 hours treatment with AIC106 and DMSO-control. [N=3 independent experiments (mean±SD). ****p<0.0001, by unpaired t-test]. Panel B) TMRM stained wild type N2 worms were monitored by fluorescence microscopy. Panel C) Mitophagy flux upon AIC106 treatment was determined in DLM14 young adult worms (TOMM-7 tagged to a peptide linked dual-Fluorescent GFP) by quantifying relative fold changes in ratio of monomeric-fluorescent protein (mFP) to dual-fluorescent protein (dFP) compared to DMSO-control. Panel D) Ability of AIC106 to rescue mitochondrial toxin (FCCP) sensitivity was determined as percent survival of 24 hours treated AIC106 and DMSO-control wild type N2 worms. [N=3 independent experiments (mean±SD). ****p<0.0001, by two-way ANOVA with Sidak's multiple comparisons test]. Panel E) Ability of AIC106 to rescue enhanced mitochondrial toxin (FCCP, 20 μM) sensitivity in mitophagy deficient parkin/pdr-1 mutant was determined as percent survival of 24 hours treated AIC106 and DMSO-control pdr-1(tm598) and pdr-1(tm598); hlh-30(tm1978) mutant. […] Panel F) Effect of AIC106 on mitochondrial biogenesis was determined by quantifying GFP fluorescence intensity in an individual SJ4143 worm (GFP targeted in mitochondria of intestinal cells) post-72 hours of treatment with AIC106 and DMSO-control. […] Panel G) SJ4143 worms were monitored by fluorescence microscopy. Panel H) Effects of AIC106 on basal (B) and maximum (M) mitochondrial respiration rate were determined by quantifying oxygen consumption rate (OCR) in wild type N2 and hlh-30(tm1978) mutant strain post-24 hours of treatment with AIC106 and DMSO-control. […]
FIG. 22, panels A-H: AIC106-induced HLH-30 expression is mediated by the nuclear hormone receptor DAF-12. […] Panel F) Protection against mitochondrial toxin (FCCP) was determined by quantifying survival of young adult worms treated 24 hours with DFA or DMSO-control. […]

Compound | HLH-30:GFP protein by immunoblot ([1]; 24 hours) | resistance to mitochondrial toxin FCCP (survival) [2] | activity and expression of HLH-30 ([1]; Example 1 (FIG. 9)) | HLH-30 expression (GFP intensity) ([1]; GFP-tagged HLH-30 strain MAH235, 24 hours) | HLH-30 expression (hlh-30 mRNA) ([1]; daf-12(rh61rh411) null mutant) | mRNA levels of HLH-30 target genes ([1]; wild type N2 worms, 24 hours) | FCCP sensitivity of pdr-1 mutant ([2]; pdr-1(tm598), FCCP 20 μM, hlh-30 dependent)
Cc1cccc(C)c1OCc1cc(C(=O)N2CCC(c3ccncc3)CC2)no1 [DFA, dafadine-A, reference compound] | significant increase in HLH-30 expression | protected against mitochondrial toxin FCCP |  |  |  |  | 
O=c1oc2c3c4c(cc2c2c1CCC2)CCCN4CCC3 [C1, 2,3,6,7,10,11-Hexahydro-1H,5H-cyclopenta(3,4)(1)benzopyrano(6,7,8-ij)quinolizin-12(9H)-one] | increase in HLH-30:GFP protein | more resistant to mitochondrial uncoupler FCCP | induction of activity and expression of the worm TFEB homologue HLH-30 | induces HLH-30 expression in worms | failed to induce HLH-30 expression | mRNA levels of several HLH-30 target genes were also increased | significantly rescue enhanced mitochondrial sensitivity of pdr-1 mutant
